In US10150728B2, “Alkylene derivatives” (Shionogi & Co., Ltd., priority 2013, dated 2018):

The compounds below were run against recombinant human ACC2 (Homo sapiens (Human), UniProt O00763) (assay: Measurement of inhibitory activity on human ACC2 (MALDI-TOF MS, acetyl CoA to malonyl CoA conversion)). Conditions: Table 154.
Type: biochemical
Outline: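 His-tagged human ACC2 (residues 27–2458) from baculovirus-infected Sf-9 cells was preincubated 1 h in pH 7.4 HEPES-KOH buffer with MgCl2, 6-10 mM potassium citrate, glutathione and BSA. Substrate solution held 1 mM ATP, 0.8 mM acetyl CoA and 25-50 mM bicarbonate. After 1–3 h at room temperature, malonyl CoA/(malonyl+acetyl CoA) was read by negative-mode MALDI-TOF MS; citrate, bicarbonate and time varied by enzyme lot.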

Sequence of recombinant human ACC2 (O00763 27-2458): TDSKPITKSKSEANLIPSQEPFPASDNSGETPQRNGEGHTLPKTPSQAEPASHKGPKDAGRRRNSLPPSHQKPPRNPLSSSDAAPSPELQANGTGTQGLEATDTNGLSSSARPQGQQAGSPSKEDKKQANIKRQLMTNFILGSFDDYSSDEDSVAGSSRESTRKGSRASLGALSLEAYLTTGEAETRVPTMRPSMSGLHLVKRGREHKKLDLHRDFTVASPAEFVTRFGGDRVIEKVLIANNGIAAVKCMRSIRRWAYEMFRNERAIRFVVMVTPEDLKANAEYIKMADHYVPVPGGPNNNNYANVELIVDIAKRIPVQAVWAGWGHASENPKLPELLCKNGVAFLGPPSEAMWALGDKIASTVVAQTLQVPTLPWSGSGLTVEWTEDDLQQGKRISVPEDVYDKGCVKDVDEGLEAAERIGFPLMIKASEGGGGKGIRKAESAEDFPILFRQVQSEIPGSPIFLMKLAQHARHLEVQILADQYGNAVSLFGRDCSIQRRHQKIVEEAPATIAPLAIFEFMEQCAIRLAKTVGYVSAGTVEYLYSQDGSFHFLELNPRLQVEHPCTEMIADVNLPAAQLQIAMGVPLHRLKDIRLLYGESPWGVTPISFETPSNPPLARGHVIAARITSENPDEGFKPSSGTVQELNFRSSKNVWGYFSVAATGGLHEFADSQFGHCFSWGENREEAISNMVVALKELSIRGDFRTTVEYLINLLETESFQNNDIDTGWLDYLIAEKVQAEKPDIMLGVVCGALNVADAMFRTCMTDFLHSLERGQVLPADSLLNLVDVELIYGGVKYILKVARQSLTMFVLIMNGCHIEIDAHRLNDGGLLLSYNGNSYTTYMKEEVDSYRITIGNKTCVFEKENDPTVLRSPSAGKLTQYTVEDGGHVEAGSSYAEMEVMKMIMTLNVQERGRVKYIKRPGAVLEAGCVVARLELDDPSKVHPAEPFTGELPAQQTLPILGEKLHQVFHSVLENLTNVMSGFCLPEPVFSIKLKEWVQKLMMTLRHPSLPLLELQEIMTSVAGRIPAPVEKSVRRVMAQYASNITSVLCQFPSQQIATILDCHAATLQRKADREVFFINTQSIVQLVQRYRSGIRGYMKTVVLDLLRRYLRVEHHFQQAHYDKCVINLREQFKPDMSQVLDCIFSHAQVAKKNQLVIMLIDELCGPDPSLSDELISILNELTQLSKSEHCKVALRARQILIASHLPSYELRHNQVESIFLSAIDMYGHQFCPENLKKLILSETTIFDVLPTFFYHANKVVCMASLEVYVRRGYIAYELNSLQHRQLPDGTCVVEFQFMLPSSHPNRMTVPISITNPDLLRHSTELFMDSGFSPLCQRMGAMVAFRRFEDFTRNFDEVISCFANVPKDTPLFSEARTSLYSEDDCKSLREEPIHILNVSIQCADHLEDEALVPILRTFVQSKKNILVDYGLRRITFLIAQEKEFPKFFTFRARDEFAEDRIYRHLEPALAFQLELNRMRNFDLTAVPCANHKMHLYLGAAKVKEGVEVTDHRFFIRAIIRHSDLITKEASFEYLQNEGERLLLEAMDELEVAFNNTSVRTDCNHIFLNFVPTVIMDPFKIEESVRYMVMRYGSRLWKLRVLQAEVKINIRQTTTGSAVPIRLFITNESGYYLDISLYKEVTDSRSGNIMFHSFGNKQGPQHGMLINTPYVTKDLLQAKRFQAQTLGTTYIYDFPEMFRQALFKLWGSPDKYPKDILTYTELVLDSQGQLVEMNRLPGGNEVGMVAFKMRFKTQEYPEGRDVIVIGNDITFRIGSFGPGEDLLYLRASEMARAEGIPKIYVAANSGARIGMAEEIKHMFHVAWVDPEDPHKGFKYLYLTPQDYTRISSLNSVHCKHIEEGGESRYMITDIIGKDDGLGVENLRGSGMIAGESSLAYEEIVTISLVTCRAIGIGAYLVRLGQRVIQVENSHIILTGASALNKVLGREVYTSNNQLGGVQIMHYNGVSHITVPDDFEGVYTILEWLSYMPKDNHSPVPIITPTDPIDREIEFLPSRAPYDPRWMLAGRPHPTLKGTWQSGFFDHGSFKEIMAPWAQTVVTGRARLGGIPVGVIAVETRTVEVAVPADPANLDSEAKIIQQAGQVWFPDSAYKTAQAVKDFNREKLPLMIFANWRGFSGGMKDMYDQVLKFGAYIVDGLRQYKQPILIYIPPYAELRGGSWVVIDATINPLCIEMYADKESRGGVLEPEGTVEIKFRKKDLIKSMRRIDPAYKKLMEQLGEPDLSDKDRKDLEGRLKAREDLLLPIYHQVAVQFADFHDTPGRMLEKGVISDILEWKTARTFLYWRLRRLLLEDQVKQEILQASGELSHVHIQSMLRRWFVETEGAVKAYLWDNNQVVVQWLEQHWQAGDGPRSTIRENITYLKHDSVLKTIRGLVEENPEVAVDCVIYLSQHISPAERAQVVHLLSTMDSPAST

**Q.** How did the IC50 turn out when `CC(=O)N[C@@H](C)COc1cnc(Oc2ccc(C(=O)N3CCCCC3)c(F)c2F)cn1` [Compound I-096] was run?
**A.** The IC50 was 0.775 µM.

**Q.** Which IC50 does the source give for `CCOc1ncc2c(Cl)c(Oc3cnc(OC[C@H](C)NC(C)=O)cn3)ccc2n1` [Compound I-069] here?
**A.** The IC50 was 1.4 µM.

**Q.** With `CCCc1ccc(Oc2ccc(OC[C@H](C)NC(C)=O)cc2)c(Cl)c1` [Compound I-005] as the compound, how does the IC50 read?
**A.** The IC50 was 0.184 µM.

**Q.** `CC(=O)N[C@@H](C)CO[C@H]1CC[C@H](Oc2ccc3nc(C(C)(F)F)sc3c2Cl)CC1` [Compound I-052] was tested. Which IC50 did it give?
**A.** The IC50 was 0.265 µM.

**Q.** For `CCC(C)(C)c1ccc(Oc2ccc(OC[C@H](C)NC(C)=O)nc2)c(Cl)c1` [Compound I-016], which IC50 is on record?
**A.** The IC50 was 0.4 µM.

**Q.** For `CCCc1ccc(Oc2ccc(OC[C@H](C)NC(=O)NCC)cc2)c(Cl)c1` [Compound I-007], which IC50 is on record?
**A.** Its IC50 is 1.39 µM.

**Q.** For `CCOc1nc2ccc(OC[C@H]3C[C@H](OC[C@H](C)NC(C)=O)C3)c(Cl)c2s1` [Compound I-089], which IC50 is on record?
**A.** The IC50 was 0.062 µM.

Same assay, conditions: Tables 155-159

**Q.** Which IC50 does the source give for `CC(=O)N[C@@H](C)CO[C@H]1C[C@H](COc2ncnc(OCc3cncs3)c2Cl)C1` [Compound I-464] here?
**A.** The IC50 was 0.036 µM.

**Q.** For `CCOc1nc2ccc(OC[C@]3(F)C[C@@H](OC[C@H](C)NC(C)=O)C3)c(F)c2s1` [Compound I-115], which IC50 is on record?
**A.** Its IC50 is 0.012 µM.

**Q.** With `CC(=O)N[C@@H](C)CO[C@H]1C[C@H](COc2nccc(N3C4CCC3CC4)c2Cl)C1` [Compound I-332] as the compound, how does the IC50 read?
**A.** The IC50 was 0.056 µM.

**Q.** `CC(=O)N[C@@H](C)CO[C@H]1CC[C@H](Oc2nc3ccc(OC(C)C)cc3n2C)CC1` [Compound I-560] was tested. Which IC50 did it give?
**A.** Its IC50 is 0.101 µM.

**Q.** How did the IC50 turn out when `CC(=O)N[C@@H](C)CO[C@H]1CC[C@H](Oc2nc3cnc(OCC4CC4(F)F)c(Cl)c3n2C)CC1` (stereo partly shown) [Compound I-708] was run?
**A.** Its IC50 is 0.005 µM.

**Q.** With `CC(=O)N[C@@H](C)CO[C@H]1CC[C@H](Oc2nc3c(F)cc(OCC(F)F)c(Cl)c3n2C)CC1` [Compound I-637] as the compound, how does the IC50 read?
**A.** Its IC50 is 0.004 µM.

**Q.** `CCOc1nc2ccc(OC[C@]3(F)C[C@@H](OC[C@H](C)NC(C)=O)C3)c(Cl)c2s1` [Compound I-116] was tested. Which IC50 did it give?
**A.** The IC50 was 0.041 µM.

**Q.** Which IC50 does the source give for `CC(=O)N[C@@H](C)CO[C@H]1CC[C@H](Oc2cc3sc(OC(C)CF)nc3cn2)CC1` (stereo partly shown) [Compound I-223] here?
**A.** Its IC50 is 0.048 µM.

**Q.** Which IC50 does the source give for `CC(=O)N[C@@H](C)CO[C@H]1C[C@H](COc2ncnc(OCc3ccccc3)c2C)C1` [Compound I-415] here?
**A.** Its IC50 is 0.018 µM.

**Q.** With `CC(=O)N[C@@H](C)CC(O)[C@@H]1CC[C@@H](Oc2nc3c(F)cc(OCC(F)F)c(F)c3n2C)CO1` (stereo partly shown) [Compound I-745] as the compound, how does the IC50 read?
**A.** The IC50 was 0.49 µM.

**Q.** Which IC50 does the source give for `CC(=O)N[C@@H](C)CO[C@H]1CC[C@H](Oc2ncc3nc(O[C@@H]4CCOC4)sc3c2F)CC1` [Compound I-277] here?
**A.** Its IC50 is 0.032 µM.

**Q.** How did the IC50 turn out when `CC(=O)N[C@@H](C)CO[C@H]1CC[C@H](Oc2nc3cnc(OCC(F)F)cc3s2)CC1` [Compound I-551] was run?
**A.** Its IC50 is 0.015 µM.

**Q.** For `CC(=O)N[C@@H](C)CO[C@H]1C[C@H](COc2ccc3nc(C(C)(F)F)sc3c2F)C1` [Compound I-107], which IC50 is on record?
**A.** Its IC50 is 0.097 µM.

**Q.** How did the IC50 turn out when `CC(=O)N[C@@H](C)CO[C@H]1C[C@H](COc2ccc3nc(O[C@H]4C[C@@H](F)C4)sc3n2)C1` [Compound I-296] was run?
**A.** Its IC50 is 0.006 µM.

**Q.** Which IC50 does the source give for `CCOc1nc2cc(F)c(OC[C@]3(F)C[C@@H](OC[C@H](C)NC(C)=O)C3)nc2s1` [Compound I-164] here?
**A.** The IC50 was 0.039 µM.

**Q.** For `C[C@@H](CO[C@H]1CC[C@H](Oc2nc3c(F)cc(OCC(F)F)c(Cl)c3n2C)CC1)NC(N)=O` [Compound I-687], which IC50 is on record?
**A.** The IC50 was 0.014 µM.

**Q.** With `CC(=O)N[C@@H](C)CO[C@H]1CC[C@H](Oc2ccc3nc(C4(F)CC4)sc3c2F)CC1` [Compound I-117] as the compound, how does the IC50 read?
**A.** The IC50 was 0.007 µM.

**Q.** With `CC(=O)N[C@@H](C)CO[C@H]1C[C@H](COc2ccc3nc(OC4(C)CC4)sc3n2)C1` [Compound I-200] as the compound, how does the IC50 read?
**A.** Its IC50 is 0.03 µM.

**Q.** With `CC(=O)N[C@@H](C)CO[C@H]1C[C@H](COc2ccc3nc(N4CCC(C#N)C4)sc3n2)C1` (stereo partly shown) [Compound I-288] as the compound, how does the IC50 read?
**A.** The IC50 was 0.759 µM.

**Q.** How did the IC50 turn out when `CC(=O)N[C@@H](C)CO[C@H]1C[C@H](COc2nccc(N3CCC(F)CC3)c2Cl)C1` [Compound I-330] was run?
**A.** The IC50 was 0.105 µM.

**Q.** Which IC50 does the source give for `CC(=O)N[C@@H](C)CO[C@H]1C[C@H](COc2ncnc(OCc3cccc(Cl)n3)c2Cl)C1` [Compound I-384] here?
**A.** Its IC50 is 0.364 µM.

**Q.** How did the IC50 turn out when `CC(=O)N[C@@H](C)CO[C@H]1C[C@H](COc2ncnc(OCc3cccc(F)c3)c2Cl)C1` [Compound I-389] was run?
**A.** The IC50 was 0.008 µM.

**Q.** With `CC(=O)N[C@@H](C)CO[C@H]1C[C@H](COc2nc3sc(OCC(F)F)nc3cc2Cl)C1` [Compound I-213] as the compound, how does the IC50 read?
**A.** The IC50 was 0.028 µM.

**Q.** Which IC50 does the source give for `COC(=O)N[C@@H](C)CO[C@H]1CC[C@H](Oc2nc3c(F)cc(OCC(F)F)c(F)c3n2C)CC1` [Compound I-672] here?
**A.** Its IC50 is 0.03 µM.

**Q.** With `CCOc1nc2ccc(OC[C@H]3C[C@H](OC[C@H](C)NC(C)=O)C3)c(F)c2n1C` [Compound I-487] as the compound, how does the IC50 read?
**A.** Its IC50 is 0.363 µM.

**Q.** For `CC(=O)N[C@@H](C)CO[C@H]1C[C@H](COc2ncnc(OCC3CCCCO3)c2Cl)C1` (stereo partly shown) [Compound I-463], which IC50 is on record?
**A.** The IC50 was 0.017 µM.

**Q.** How did the IC50 turn out when `CC(=O)N[C@@H](C)CO[C@H]1CC[C@H](Oc2cc(C)c3nc(Oc4ccc(F)cc4)n(C)c3n2)CC1` [Compound I-508] was run?
**A.** The IC50 was 0.081 µM.

**Q.** For `CC(=O)N[C@@H](C)CO[C@H]1CC[C@H](Oc2nc3cnc(OCc4ccccc4)c(F)c3n2C)CC1` [Compound I-634], which IC50 is on record?
**A.** Its IC50 is 0.034 µM.

**Q.** `CC(=O)N[C@@H](C)CO[C@H]1CC[C@H](Oc2cc3sc(O[C@H]4C[C@@H](C#N)C4)nc3cn2)CC1` [Compound I-271] was tested. Which IC50 did it give?
**A.** Its IC50 is 0.083 µM.

**Q.** With `CC(=O)N[C@@H](C)CO[C@H]1C[C@H](COc2ccc3nc(O[C@H]4CCOC4)sc3n2)C1` [Compound I-246] as the compound, how does the IC50 read?
**A.** Its IC50 is 0.047 µM.

**Q.** With `CC(=O)N[C@@H](C)CO[C@H]1C[C@H](COc2ccc3nc(OC4CC(F)(F)C4)n(C)c3n2)C1` [Compound I-478] as the compound, how does the IC50 read?
**A.** Its IC50 is 0.116 µM.

**Q.** Which IC50 does the source give for `CC(=O)N[C@@H](C)CO[C@H]1C[C@H](COc2ccc3nc(N4CCCC4)sc3n2)C1` [Compound I-257] here?
**A.** Its IC50 is 0.014 µM.

**Q.** `C[C@@H](CO[C@H]1CC[C@H](Oc2ncc3nc(OC4CC4)sc3c2F)CC1)NC(=O)CO` [Compound I-272] was tested. Which IC50 did it give?
**A.** The IC50 was 0.123 µM.

**Q.** How did the IC50 turn out when `CCOc1cc2c(nc(O[C@H]3CC[C@H](OC[C@H](C)NC(C)=O)CC3)n2C)c(Cl)c1Cl` [Compound I-725] was run?
**A.** Its IC50 is 0.101 µM.

**Q.** How did the IC50 turn out when `CCOc1nc2cc(Cl)c(OC[C@H]3C[C@H](OC[C@H](C)NC(C)=O)C3)nc2n1C` [Compound I-488] was run?
**A.** The IC50 was 0.314 µM.

**Q.** `CC(=O)N[C@@H](C)CO[C@H]1CC[C@H](Oc2ncc3nc(OC4COC4)sc3c2F)CC1` [Compound I-273] was tested. Which IC50 did it give?
**A.** The IC50 was 0.035 µM.

**Q.** How did the IC50 turn out when `CC(=O)N[C@@H](C)CO[C@H]1CC[C@H](Oc2ccc3nc(Cl)sc3c2F)CC1` [Compound I-124] was run?
**A.** The IC50 was 0.037 µM.

**Q.** With `CC(=O)N[C@@H](C)CO[C@H]1C[C@H](COc2ncnc3c2ccn3C2CCCCC2)C1` [Compound I-451] as the compound, how does the IC50 read?
**A.** Its IC50 is 0.04 µM.

**Q.** With `CC(=O)N[C@@H](C)CO[C@H]1C[C@H](COc2ncnc(OCc3ncc(Cl)s3)c2Cl)C1` [Compound I-439] as the compound, how does the IC50 read?
**A.** Its IC50 is 0.004 µM.

**Q.** With `CC(=O)N[C@@H](C)CO[C@H]1CC[C@H](Oc2nc3c(C#N)cc(C4CC4)cc3n2C)CC1` [Compound I-663] as the compound, how does the IC50 read?
**A.** Its IC50 is 0.7 µM.

**Q.** Which IC50 does the source give for `CC(=O)N[C@@H](C)CO[C@H]1CC[C@H](Oc2nc3c(Cl)cc(OCC(F)F)cc3n2C)CC1` [Compound I-706] here?
**A.** The IC50 was 0.048 µM.

**Q.** `CC(=O)N[C@@H](C)CO[C@H]1CC[C@H](Oc2nc3c(F)c(F)c(F)c(F)c3n2C)CC1` [Compound I-619] was tested. Which IC50 did it give?
**A.** Its IC50 is 0.009 µM.

**Q.** For `CC(=O)N[C@@H](C)CO[C@H]1C[C@H](COc2nccc(OC3C[C@@H]4CC[C@@H]3C4)c2Cl)C1` (stereo partly shown) [Compound I-366], which IC50 is on record?
**A.** Its IC50 is 0.031 µM.

**Q.** How did the IC50 turn out when `CCOc1nc2cc(F)c(O[C@H]3CC[C@H](OC[C@H](C)NC(C)=O)CC3)nc2s1` [Compound I-186] was run?
**A.** Its IC50 is 0.005 µM.

**Q.** With `CC(=O)N[C@@H](C)CO[C@H]1C[C@](F)(COc2ccc3nc(OC4CC4)sc3n2)C1` [Compound I-298] as the compound, how does the IC50 read?
**A.** The IC50 was 0.052 µM.
